Measured values taken from patent US12286452B2, “Amphiphilic aminoglycoside connexin hemichannel inhibitors” (Texas Tech University System, priority 2018, dated 2025).
Values after ≈ are worked out from the molar mass of the structure shown. Like-named read-outs stand apart in the source and are kept apart here.

Key:
Format in all cases: cell-based
[1] = tested on: Staphylococcus aureus (ATCC25923); test: Antibacterial assay (MIC); settings: read-out: MIC against S. aureus
Description: Antibacterial assay: The minimum inhibitory concentration (MIC) of the newly synthesized compounds was tested against E. coli (ATCC 25922) and Staphylococcus aureus (ATCC25923). The concentration of bacteria grown in Lysogeny Broth (LB) was adjusted to an absorbance at 600 nm (OD600) of 0.08-0.1 using LB. A series of 2-fold dilutions was made for each compound in 96-well plates (USA Scientific CC7682-7596) starting from 256 μg/mL, and then, 50 μL of the diluted bacteria suspension was transferred to the wells. Bacteria were incubated for 18-24 h at 35° C. before measuring OD600 to assess growth. Experiments for each compound were done at least in duplicates.

[2] = biological target: T1, human Cx26 HCs (Homo sapiens, UniProt P29033); test: Cx26-dependent growth complementation assay in E. coli LB2003; settings: for IC50: first Table 2, read-out: IC50, inhibition of Cx26 by synthetic AGs
T1 construct: expressed in transfected cells; host or cells: E. coli LB2003 (carrying pREP4), transformed with pQE-Cx26, IPTG-induced
Description: These derivatives were prepared by sequential benzylation and methylation followed by reduction of azido groups or hydrogenolysis of the Bn. […] Connexin HC inhibition was conducted using a bacteria-based assay of HC function^39. In this assay, Cx26 HCs are expressed in E. coli LB2003 cells, which lack three major K^+ uptake systems (Kdp, Kup and Trk), and as a result they cannot grow in low-[K^+] media^39-41. However, growth of this E. coli strain in low-[K^+] medium can be rescued by expression of K^+-permeable channels such as connexin HCs^39, 42-43. Under the conditions of the assay (LB2003 cells expressing HCs and grown in low-K^+ medium), inhibition of the HCs reduces or abolishes growth^39, 42-43. This is a simple assay where bacterial growth in multi-well plates can be followed by measuring the absorbance at 600 nm (OD600)^29.
LB2003 cells generously provided by Dr. E. P. Bakker (Osnabruk University, Osnabruk, Germany) were transformed with the plasmid pQE-Cx26 (human Cx26 into pQE60) and pREP4. […] LB2003 cells cannot grow in low-[K^+] media because of insufficient K^+ uptake for growth due to the knockout of three key K^+ transporters (Atrk, Akup, Akdp strain)^2-4. Details and validation of the growth complementation assay have been published recently^2. In brief, competent LB2003 containing the pREP4 plasmid were transformed with pQE-Cx26. These cells were grown overnight in Luria-Bertani medium (BD, Franklin Lakes, NJ, USA) supplemented with 100 mM KCl (to allow growth) and 0.4 mg/mL ampicillin, and then washed four times with NLM (see below), to remove residual K^+ from the Luria-Bertani medium. The washed cells were resuspended in complementation growth medium to an OD600 of 0.2. NLM contained 46 mM Na2HPO4, 23 mM NaH2PO4, 8 mM (NH4)2SO4, 0.4 mM MgSO4, 0.012 mM FeSO4, 1 mM sodium citrate, 44 mM glucose and 0.006 mM thiamine hydrochloride, pH 7.0. KLM had the same composition that NLM except for the equimolar replacement of Na^+ with K^+. For growth complementation we used NLM+4 mM KCl, and Cx26 expression was induced with 0.5 mM IPTG at the time of dilution to OD600=0.2. For the assay, the cells were seeded in 96-well plates and were incubated at 30° C., with shaking at 500 rpm. OD600 was measured after 18-h incubation in a plate reader. The initial OD600=0.2 was subtracted for growth calculations. Data are presented as means±SEM. Statistically significant differences were calculated by the Student t-test for unpaired data. Data were obtained from at least 3 independent experiments, with 3 repeats per experiment.

[3] = biological target: T2, Cx43 HCs (Homo sapiens, UniProt P17302); test: Cx43-dependent growth complementation assay in E. coli LB2003
T2 construct: expressed in transfected cells

[4] = K46 members, the 20th table, read-out: IC50 (μM) against Cx43

T2 sequence (P17302 whole entry): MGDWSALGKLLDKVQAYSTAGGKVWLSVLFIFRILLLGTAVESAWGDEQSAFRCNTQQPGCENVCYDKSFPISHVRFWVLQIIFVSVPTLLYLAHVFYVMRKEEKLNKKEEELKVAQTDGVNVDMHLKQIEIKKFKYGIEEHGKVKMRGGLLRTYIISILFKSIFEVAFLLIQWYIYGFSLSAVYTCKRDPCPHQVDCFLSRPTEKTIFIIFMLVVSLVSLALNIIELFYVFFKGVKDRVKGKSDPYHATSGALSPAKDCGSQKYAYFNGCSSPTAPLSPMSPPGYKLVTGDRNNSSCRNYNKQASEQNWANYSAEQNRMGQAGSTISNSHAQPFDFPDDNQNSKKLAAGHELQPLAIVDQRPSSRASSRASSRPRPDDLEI

Row | MIC [1] [mg/mL] | IC50 [2] [µM] | IC50 [3, 4] [µM] | Cx43 Imax (maximal inhibition) ([3]; the 12th table, Hill fit) [%] | IC50 ([3]; the 12th table, Hill fit, mean ± SEM, some n = 1, read-out: Cx43 IC50) [µM] | Cx26 Imax ([2]; the 13th table) [%] | Cx43 Imax ([3]; the 13th table) [%] | IC50 ([3]; the 13th table, read-out: Cx43 IC50) [µM] | Structure (SMILES)
1 | 64 (≈ 83.7 mM) | 6.6 ± 0.5 | 15 | 122 | 15 |  |  |  | NCC1OC(OC2C(N)CC(N)C(OC3OC(COCc4cccc5ccccc45)C(OCc4cccc5ccccc45)C(N)C3O)C2O)C(O)C(O)C1O (centres unmarked) [Compound 15, 4″,6″-Di-O-(1-naphthalenmethyl) kanamycin]
2 | 16 (≈ 19.6 mM) | 6.2 ± 0.7 | 5.5 ± 2 |  |  | 102 ± 2 | 121 ± 25 | 5.5 ± 2 | NCC1OC(OC2C(N)CC(N)C(OC3OC(COCc4cccc(-c5ccccc5)c4)C(OCc4cccc(-c5ccccc5)c4)C(N)C3O)C2O)C(O)C(O)C1O (centres unmarked) [Compound 16, 4″,6″-Di-O-(3-phenylbenzyl)-kanamycin]
